# Experimental data published in US20260265279A1, “RHO-ASSOCIATED PROTEIN KINASE INHIBITOR AND PREPARATION AND USE THEREOF” (Shanghai Zhimeng Biopharma, Inc, priority 2022, published 2026).
# Columns and labels:
# [1] = Pharmacokinetic study in male SD rats; assay type: in vivo; settings: rat, plasma
# Protocol: 1) Purpose of the Study: Obtain the Pharmacokinetic Characterization of the Compounds of the Present Invention in Male SD Rats
# For each compound, 6 healthy male SD rats (weight range 200-250 g) was taken and divided into 2 groups of 3 each; Group 1 was administered intravenously in a single dose (see Table 2 for dosage) and Group 2 was administered orally in a single gavage (see Table 2 for dosage, fasted overnight before administration). Blood was collected by jugular vein or cardiac puncture at 0.083 (group 1 only), 0.25, 0.5, 1, 2, 4, 6 (group 2 only), 8 and 24 h after drug administration, respectively, and at least 0.2 mL of whole blood was collected from each sample into EDTA-K2 anticoagulant tubes, and the samples were mixed and placed on wet ice after sample collection, and then centrifuged to separate plasma (6,800 g, 6 min, 2-8° C.) at 1 h. The plasma samples were stored in ultra-low temperature refrigerators before analysis.
# Experimental results: The pharmacokinetic parameters after administration were calculated from the blood concentration data obtained by LC-MS/MS assay using the non-compartmental model of WinNonlin® 7.0 software (Pharsight, Inc., USA) and are shown in the table below: […]
# [2] = target: T1, ROCK2 (Homo sapiens, UniProt O75116); test: Kinase IC50 assay, HTRF kinEASE STK S2 kit, ROCK2; assay type: biochemical; settings: ATP 1 μM, 2.5 ng/well enzyme, 120 min
# T1 construct: purchased Invitrogen PV3759
# Protocol: (§1) Kinase IC50 assay was performed using the kinase assay kit HTRF kinEASE STK S2 kit (Cat #62ST2PEC, Cisbio). Kinases ROCK1 (Cat #PV3691) and ROCK2 (Cat #PV3759) were purchased from Invitrogen.
# (§2) The working solution required for the assay was prepared with the appropriate reagents as described in the kinase assay kit instructions:
# (§3) 1 mL of 1× Kinase Buffer contains 200 μL 5× Enzyme buffer, 5 μL 1M MgCl2 (Cat.M8266, Sigma), 1 μL 1M DTT (Cat.D5545, Sigma), 794 μL ddH2O.
# (§4) The specific concentrations of STK-biotin substrate and ATP are shown in Table A. STK-biotin substrate and ATP were diluted with 1× kinase buffer to 2.5 times of the reaction concentration.
# (§5) Concentrations of ROCK1/ROCK2 are shown in Table A. 5×ROCK1/ROCK2 Kinase working solution was prepared with 1× Kinase Buffer.
# (§6) See Table A for the concentrations of Streptavidin-XL665 and STK Antibody-Cryptate in the reaction. 2× Streptavidin-XL665 and STK Antibody-Cryptate Working Solutions were prepared 5 minutes prior to the end of the kinase reaction using Detection Buffer from the kit.
# (§7) A 100 μM compound mother solution was prepared using 1× kinase buffer containing 2.5% DMSO, and the mother solution was diluted 4-fold stepwise with the above DMSO-containing kinase buffer to obtain nine different concentrations of the compound solutions to be tested. In addition to the test compound wells, positive control wells (containing all reagents except the compounds) and negative control wells (containing all reagents except the compounds and kinase) were set up. 4 μL of the test compound solution was added to all reaction wells except the control wells and 4 μL of 2.5% DMSO solution was added to the control wells. Then 4 μL of previously prepared substrate and ATP working solution were added to all wells and mix well. Then, 2 μL/well of 5×ROCK1/ROCK2 kinase working solution (containing 2.5 ng ROCK1/ROCK2 kinase) was added to all reaction wells except negative control wells, and the negative control wells were made up to volume with 2 μL of 1× kinase buffer. Mix well, seal with plastic film and incubate at room temperature for 2 hours. Start preparing the assay solution 5 minutes before the end of the kinase reaction. After the end of the kinase reaction, 10 μL of prepared Streptavidin-XL665 and STK Antibody-Cryptate working solution were added to all reaction wells, the plates were sealed and mixed well, and then incubated at room temperature for 1 hour. Finally, the fluorescence signal was detected by SpectraMax i3x Multi-Mode Reader (Molecular Devices) (excitation wavelength is 320 nm, emission wavelength is 665 nm and 615 nm).
# (§8) The inhibition rate in each well was calculated from the fluorescence intensity values of each well:
# (§9) ER Emission Ratio, Emission light ratio=fluorescence intensity at 665 nm/fluorescence intensity at 615 nm;
# (§10) ERcompound, ER of test compound wells; ERvehicle, ER of solvent (positive) control wells, ERblank, ER of blank (negative) control wells.
# (§11) The graphs were plotted using the software GraphPad Prism 6.0, while the half inhibitory concentration (IC50) of each compound to be tested was obtained by fitting with Prism 6.0.
# [3] = target: T2, ROCK1 (Homo sapiens, UniProt Q13464); test: Kinase IC50 assay, HTRF kinEASE STK S2 kit, ROCK1; assay type: biochemical; settings: ATP 1.5 μM, 2.5 ng/well enzyme, 120 min
# T2 construct: purchased Invitrogen PV3691
# Protocol: as §1, §2, §3, §4, §5, §6, §7, §8, §9, §10, §11
# [4] = po, gavage 10 mg/kg, fasted overnight
# T1 sequence (O75116 5-554 limits assumed): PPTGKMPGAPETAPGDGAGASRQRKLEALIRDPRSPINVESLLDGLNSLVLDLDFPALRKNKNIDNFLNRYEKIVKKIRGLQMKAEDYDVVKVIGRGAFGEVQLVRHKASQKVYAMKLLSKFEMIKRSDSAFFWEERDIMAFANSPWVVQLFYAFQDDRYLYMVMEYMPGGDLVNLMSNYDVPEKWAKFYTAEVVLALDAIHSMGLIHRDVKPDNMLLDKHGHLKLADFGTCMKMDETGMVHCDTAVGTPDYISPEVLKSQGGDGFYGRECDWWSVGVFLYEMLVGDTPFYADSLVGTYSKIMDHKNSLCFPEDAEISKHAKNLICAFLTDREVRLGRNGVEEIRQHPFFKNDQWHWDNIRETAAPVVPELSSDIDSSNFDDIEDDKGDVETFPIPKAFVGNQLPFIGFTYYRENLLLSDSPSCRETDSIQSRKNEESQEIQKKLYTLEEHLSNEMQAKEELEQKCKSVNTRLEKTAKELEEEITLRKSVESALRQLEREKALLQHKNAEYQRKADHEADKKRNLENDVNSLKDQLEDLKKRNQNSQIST
# T2 sequence (Q13464 1-535 limits assumed): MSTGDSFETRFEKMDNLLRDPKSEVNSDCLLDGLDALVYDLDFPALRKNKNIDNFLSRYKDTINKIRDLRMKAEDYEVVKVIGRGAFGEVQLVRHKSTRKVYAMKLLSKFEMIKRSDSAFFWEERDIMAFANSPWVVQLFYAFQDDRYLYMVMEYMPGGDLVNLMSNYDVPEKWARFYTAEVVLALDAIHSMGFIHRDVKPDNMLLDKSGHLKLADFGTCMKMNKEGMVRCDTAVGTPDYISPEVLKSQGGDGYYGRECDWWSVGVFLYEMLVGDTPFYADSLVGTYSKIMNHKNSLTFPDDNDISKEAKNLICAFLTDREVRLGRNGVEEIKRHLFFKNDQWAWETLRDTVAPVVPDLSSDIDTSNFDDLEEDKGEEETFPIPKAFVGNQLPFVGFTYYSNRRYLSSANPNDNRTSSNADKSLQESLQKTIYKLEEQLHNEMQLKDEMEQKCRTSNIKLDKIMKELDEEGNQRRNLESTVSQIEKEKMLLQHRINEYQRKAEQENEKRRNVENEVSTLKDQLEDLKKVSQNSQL
smiles,measurement,setting,value
Cn1c(C#Cc2nccc(Nc3ccc(-c4cn[nH]c4)cc3)n2)ccc1C(=O)N1CC(F)(F)C1 [Compound A1],AUC(0-t),[1]; intravenous injection 1 mg/kg,1210 ng·h/mL
same,Cmax,[1]; intravenous injection 1 mg/kg,765 ng/mL
same,Tmax,[1]; intravenous injection 1 mg/kg,0.08 h
same,half-life,[1]; intravenous injection 1 mg/kg,2.05 h
same,bioavailability,"[1]; oral, gavage 10 mg/kg vs intravenous 1 mg/kg",11.5%
same,AUC(0-t),[1]; [4],1400 ng·h/mL
same,Cmax,[1]; [4],251 ng/mL
same,Tmax,[1]; [4],1.33 h
same,half-life,[1]; [4],3.47 h
same,IC50,[2],0.104 µM
same,IC50,[3],> 100 µM
